From US9751857B2, “Hepatitis B antiviral agents” (NOVIRA THERAPEUTICS, INC., priority 2011, dated 2017)

Experiments:
[1] = target: HBV C150Bo capsid protein (HBV CA protein) (Hepatitis B virus genotype D subtype adw, UniProt P03147, C107A/C48A/C61A/R150C); test: HBV assembly assay (fluorescence quenching in vitro assembly); type: biochemical; conditions: at 10 μM
[2] = tested on: HBV replication in HepG2-2.2.15 cells; test: Dot-blot assay of HBV replication; type: cell-based; conditions: Hepatitis B virus, 144 h
Method: Compounds active in the HBV assembly assay are tested for their activity and toxicity in cellular assay. In the first anti-viral assay, the ability of compounds to inhibit HBV replication in an HBV-producing hepatoma cell line using the dot-blot method is evaluated.
Briefly, confluent monolayers of HepG2-2.2.15 cells are incubated with complete medium containing various concentrations of a test compound. Three days later, the culture medium is replaced with fresh medium containing the appropriately diluted test compound. Six days following the initial administration of the test compound, the cell culture supernatant is collected, and cell lysis is performed. The samples are applied onto Nylos membranes and DNA is immobilized to the membrane by UV cross-linking. After pre-hybridization, the HBV probe is added and the hybridization is performed overnight. The membranes are exposed to the Kodak films; antiviral activity is calculated from the reduction in HBV DNA levels (EC50). The EC50 for antiviral activity is calculated from the dose response curves of active compounds.
In the first anti-viral assay, the ability of compounds to inhibit HBV replication in an HBV-producing hepatoma cell line using the dot-blot method was evaluated.
Confluent monolayers of HepG2-2.2.15 cells were incubated with complete medium containing various concentrations of a test compound. Three days later, the culture medium was replaced with fresh medium containing the appropriately diluted test compound. Six days following the initial administration of the test compound, the cell culture supernatant was collected, and cell lysis was performed. The samples were applied onto Nylos membranes and DNA was immobilized to the membrane by UV cross-linking. After pre-hybridization, the HBV probe was added and the hybridization was performed overnight. The membranes were exposed to the Kodak films; antiviral activity was calculated from the reduction in HBV DNA levels (EC50). The EC50 for antiviral activity was calculated from the dose response curves of active compounds. […]

Chain of HBV C150Bo capsid protein (HBV CA protein) (P03147 1-150 C48A/C61A/C107A/R150C): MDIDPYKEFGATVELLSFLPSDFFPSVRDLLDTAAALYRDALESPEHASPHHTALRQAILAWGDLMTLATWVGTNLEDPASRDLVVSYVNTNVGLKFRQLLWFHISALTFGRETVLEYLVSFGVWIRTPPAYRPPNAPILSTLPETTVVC

SMILES | Activity in HBV assembly assay [1] | inhibition at 10 µM [2] [%]
O=C(Nc1ccc(F)c(Cl)c1)c1cccc(S(=O)(=O)N2CCC(O)(c3cccc(F)c3F)CC2)c1 [compound 775] | + (‘+’ indicates >50% activity at 10 μM) | > 50
O=C(Nc1cc(F)c(F)c(CF)c1)c1cccc(S(=O)(=O)N2CC(O)C2)c1 [compound 803] | + (‘+’ indicates >50% activity at 10 μM) | > 50
O=C(Nc1ccc(F)c(Br)c1)c1cccc(S(=O)(=O)N2CC(O)C(F)C2)c1 (centres unmarked) [compound 826] | + (‘+’ indicates >50% activity at 10 μM) | > 50
O=C(Nc1ccc(F)c(Br)c1)c1cccc(S(=O)(=O)NC2CCCC2O)c1 (centres unmarked) [compound 843] | + (‘+’ indicates >50% activity at 10 μM) | > 50
O=C(Nc1ccc(F)c(Cl)c1)c1cc(S(=O)(=O)N2CCC(O)CC2)ccc1F [compound 885] | + (‘+’ indicates >50% activity at 10 μM) | > 50
O=C(Nc1cc(F)c(F)c(F)c1)c1ccc(F)c(S(=O)(=O)N2CCC(O)CC2)c1 [compound 890] | + (‘+’ indicates >50% activity at 10 μM) | > 50
O=C(Nc1cc(F)c(F)c(F)c1)c1ccc(F)c(S(=O)(=O)N2CCC(CCO)CC2)c1 [compound 900] | + (‘+’ indicates >50% activity at 10 μM) | > 50
O=C(Nc1cc(F)c(F)c(F)c1)c1ccc(F)c(S(=O)(=O)N2CC(O)C2)c1 [compound 901] | + (‘+’ indicates >50% activity at 10 μM) | > 50
O=C(Nc1cc(F)c(F)c(F)c1)c1ccc(F)c(S(=O)(=O)N2CCC(O)C2)c1 (centres unmarked) [compound 903] | + (‘+’ indicates >50% activity at 10 μM) | > 50
O=C(Nc1ccc(F)c(Cl)c1)c1ccc(F)c(S(=O)(=O)N2CCC(CCO)CC2)c1 [compound 914] | + (‘+’ indicates >50% activity at 10 μM) | > 50
O=C(Nc1cc(F)c(F)c(F)c1)c1ccc(F)c(S(=O)(=O)N2CCC(O)(CO)CC2)c1 [compound 916] | + (‘+’ indicates >50% activity at 10 μM) | > 50
COC(=O)c1ccc(C(=O)Nc2cc(F)c(F)c(F)c2)cc1S(=O)(=O)N1CCC(O)CC1 [compound 927] | + (‘+’ indicates >50% activity at 10 μM) | > 50
Cc1ccc(S(=O)(=O)N2CCC(O)CC2)cc1C(=O)Nc1cc(F)c(F)c(F)c1 [compound 928] | + (‘+’ indicates >50% activity at 10 μM) | > 50
O=C(Nc1cc(F)c(F)c(Cl)c1)c1cccc(S(=O)(=O)N2CC(O)C2)c1 [compound 935] | + (‘+’ indicates >50% activity at 10 μM) | > 50
O=C(Nc1ccc(F)c(Cl)c1)c1ccc(F)c(S(=O)(=O)N2CC(O)C2)c1 [compound 953] | + (‘+’ indicates >50% activity at 10 μM) | > 50
O=C(Nc1ccc(F)c(Cl)c1)c1ccc(F)c(S(=O)(=O)NC2CCC(O)C2)c1 (centres unmarked) [compound 958] | + (‘+’ indicates >50% activity at 10 μM) | > 50
O=C(Nc1ccc(F)c(Br)c1)c1ccc(F)c(S(=O)(=O)NC2CCC(O)C2)c1 (centres unmarked) [compound 959] | + (‘+’ indicates >50% activity at 10 μM) | > 50
O=C(Nc1ccc(F)c(Cl)c1)c1ccc(Cl)c(S(=O)(=O)NC2CC(O)C2)c1 (centres unmarked) [compound 1042] | + (‘+’ indicates >50% activity at 10 μM) | > 50
O=C(Nc1cc(F)c(F)c(F)c1)c1ccc(Cl)c(S(=O)(=O)N2CCC(O)CC2)c1 [compound 1057] | + (‘+’ indicates >50% activity at 10 μM) | > 50
O=C(Nc1ccc(F)c(Br)c1)c1ccc(Cl)c(S(=O)(=O)N2CCC(CCO)CC2)c1 [compound 1087] | + (‘+’ indicates >50% activity at 10 μM) | > 50

SMILES | Activity in HBV assembly assay [1] | inhibition at 10 µM [2] [%]
O=C(Nc1ccc(F)c(Br)c1)c1ccc(Cl)c(S(=O)(=O)N2CCC(O)(CO)CC2)c1 [compound 1099] | + (‘+’ indicates >50% activity at 10 μM) | > 50
O=C(Nc1cc(F)c(F)c(F)c1)c1cc(S(=O)(=O)NC2CCCC2O)ccc1Cl (centres unmarked) [compound 1113] | + (‘+’ indicates >50% activity at 10 μM) | > 50
O=C(Nc1ccc(F)c(Cl)c1)c1cc(S(=O)(=O)NC2CCCC2O)ccc1Cl (centres unmarked) [compound 1114] | + (‘+’ indicates >50% activity at 10 μM) | > 50
O=C(Nc1cc(F)c(F)c(F)c1)c1cc(S(=O)(=O)NC2CCCCC2O)ccc1Cl (centres unmarked) [compound 1129] | + (‘+’ indicates >50% activity at 10 μM) | > 50
O=C(Nc1cc(F)c(F)c(F)c1)c1ccc(Cl)c(S(=O)(=O)N2CCC(O)(CO)CC2)c1 [compound 1130] | + (‘+’ indicates >50% activity at 10 μM) | > 50
O=C(Nc1cc(F)c(F)c(F)c1)c1cc(S(=O)(=O)N2CCC(O)CC2)ccc1Cl [compound 1149] | + (‘+’ indicates >50% activity at 10 μM) | > 50
O=C(Nc1cc(F)c(F)c(F)c1)c1cc(S(=O)(=O)N2CC(O)C2)ccc1Cl [compound 1153] | + (‘+’ indicates >50% activity at 10 μM) | > 50
O=C(Nc1ccc(F)c(Cl)c1)c1cccc(S(=O)(=O)NC2CCC(O)C2)c1 (centres unmarked) [compound 1157] | + (‘+’ indicates >50% activity at 10 μM) | > 50
CC1(O)CCN(S(=O)(=O)c2cc(C(=O)Nc3cc(F)c(F)c(F)c3)ccc2F)CC1 [compound 1161] | + (‘+’ indicates >50% activity at 10 μM) | > 50
O=C(Nc1cc(F)c(F)c(F)c1)c1cc(S(=O)(=O)N2CCC(O)(CO)CC2)ccc1Cl [compound 1189] | + (‘+’ indicates >50% activity at 10 μM) | > 50
O=C(Nc1cc(F)c(F)c(F)c1)c1ccc(F)c(S(=O)(=O)N2CCC(O)C(CF)C2)c1 (centres unmarked) [compound 1283] | + (‘+’ indicates >50% activity at 10 μM) | > 50
O=C(Nc1ccc(F)c(F)c1)c1cc(S(=O)(=O)N2CCC(O)CC2)c(F)cc1Cl [compound 1338] | + (‘+’ indicates >50% activity at 10 μM) | > 50
O=C(Nc1cc(F)c(F)c(F)c1)c1cc(S(=O)(=O)N2CC(O)C2)c(F)cc1Cl [compound 1339] | + (‘+’ indicates >50% activity at 10 μM) | > 50
CN(CCO)S(=O)(=O)c1cc(C(=O)Nc2ccc(F)c(Cl)c2)c(Cl)cc1F [compound 1345] | + (‘+’ indicates >50% activity at 10 μM) | > 50
O=C(Nc1cc(F)c(F)c(F)c1)c1cc(S(=O)(=O)N2CCC(O)(CO)CC2)c(F)cc1Cl [compound 1379] | + (‘+’ indicates >50% activity at 10 μM) | > 50
O=C(Nc1ccc(F)c(Cl)c1)c1cc(S(=O)(=O)N2CCC(O)(CO)CC2)c(F)cc1Cl [compound 1380] | + (‘+’ indicates >50% activity at 10 μM) | > 50
O=C(Nc1cc(F)c(F)c(F)c1)c1cc(S(=O)(=O)NC2COCC2O)c(F)cc1Cl (centres unmarked) [compound 1404] | + (‘+’ indicates >50% activity at 10 μM) | > 50
O=C(Nc1ccc(F)c(Cl)c1)c1cc(S(=O)(=O)N2CC(O)C(F)C2)c(F)cc1Cl (centres unmarked) [compound 1410] | + (‘+’ indicates >50% activity at 10 μM) | > 50
O=C(Nc1ccc(F)c(F)c1)c1cc(S(=O)(=O)N2CC(O)C(F)C2)c(F)cc1Cl (centres unmarked) [compound 1413] | + (‘+’ indicates >50% activity at 10 μM) | > 50
O=C(Nc1cc(F)c(F)c(F)c1)c1ccc(CO)c(S(=O)(=O)N2CCC(O)CC2)c1 [compound 1420] | + (‘+’ indicates >50% activity at 10 μM) | > 50
